“Also recorded” adds a separate entry of the source. Structures can show the parent of a compound that is named as a salt.
How the values were obtained:
VCaP cells = assay: MTT cell growth, VCaP; format: cell-based
Procedure: (§1) Identification of a 3α-oxidoreductase inhibitors: Various non-steroidal compounds were tested for anti-neoplastic activity by screening against PC-3 CaP cells. Coumarin-labeled androgens were developed to track changes in androgen metabolism pathways in response to castration or androgen metabolism inhibition using in vitro and in vivo CaP cell models.
(§2) VCaP, CWR-R1 and PC-3 cells were treated for six days with complete culture media (CM), serum-free culture media (SFM), bicalutamide (Bic) at 10 μM, the coumarin C at 20 μM, DHT at 10 nM, DHT-17C at 20 nM and DHT-3C at 20 nM (FIG. 20). […] MTT analysis was performed to compare cell growth impairment of VCaP cells treated with DHT-17C versus enzalutamide. Cells were treated with DHT-17C at 1 nM, 12 nM, 20 nM, 50 nM or 100 nM concentrations, or enzalutamide at 1 μM, 12 μM, 20 μM, 50 μM or 100 μM concentrations. […] MTT performed using ezanlutamide (20 uM) or DHT-17C (50 nM) treated mutant AR and AR-V7 positive CWR-R1 cells supported VCaP MTT data (FIG. 22).

CRPC = conditions: cited from earlier work
AR-GFP = target: T1, AR-GFP (Homo sapiens, UniProt P10275); assay: ImageStream nuclear co-localization with AR-GFP; format: cell-based
T1 construct: expressed in transfected cells; host or cells: VCaP, PC-3 (also LAPC-4, CWR-R1, 22Rv1, DU145)
T1 sequence (P10275 1-920): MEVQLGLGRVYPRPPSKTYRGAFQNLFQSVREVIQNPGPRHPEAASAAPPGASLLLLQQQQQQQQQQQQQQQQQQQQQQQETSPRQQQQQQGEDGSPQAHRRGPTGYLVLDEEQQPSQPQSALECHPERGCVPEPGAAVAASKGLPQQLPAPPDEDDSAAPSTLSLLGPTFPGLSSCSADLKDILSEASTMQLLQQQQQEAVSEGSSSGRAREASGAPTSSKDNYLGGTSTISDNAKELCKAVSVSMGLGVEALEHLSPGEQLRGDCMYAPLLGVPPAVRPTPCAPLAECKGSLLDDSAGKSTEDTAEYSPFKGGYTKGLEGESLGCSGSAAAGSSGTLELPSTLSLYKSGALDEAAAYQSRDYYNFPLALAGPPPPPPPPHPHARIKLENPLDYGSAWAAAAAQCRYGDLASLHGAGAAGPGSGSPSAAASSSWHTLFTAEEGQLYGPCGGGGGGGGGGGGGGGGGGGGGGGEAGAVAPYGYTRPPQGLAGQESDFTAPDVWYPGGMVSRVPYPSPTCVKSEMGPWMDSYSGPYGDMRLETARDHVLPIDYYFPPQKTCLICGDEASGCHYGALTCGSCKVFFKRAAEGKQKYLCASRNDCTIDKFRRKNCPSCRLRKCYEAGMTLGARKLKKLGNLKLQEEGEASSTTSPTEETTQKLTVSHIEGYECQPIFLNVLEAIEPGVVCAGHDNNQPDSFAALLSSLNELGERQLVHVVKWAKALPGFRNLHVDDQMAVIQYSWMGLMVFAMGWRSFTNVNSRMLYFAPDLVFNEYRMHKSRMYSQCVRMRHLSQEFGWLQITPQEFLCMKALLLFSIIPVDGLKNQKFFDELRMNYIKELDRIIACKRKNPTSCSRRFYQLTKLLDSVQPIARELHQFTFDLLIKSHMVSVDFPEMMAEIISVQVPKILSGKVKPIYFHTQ
From the text: Androgen-sensitive AR-positive LAPC-4 and VCaP, castration-recurrent and AR-positive CWR-R1 and CWR-22rv1 (22rv1), and AR-negative PC-3 and DU145 cells were transfected with either an empty pCMV expression plasmid (control) or a pCMV plasmid that encoded a wild-type AR tagged with a C-terminal green fluorescent protein (GFP; AR-GFP). AR-positive CaP cell lines were transfected with AR-GFP to assess if DHT-17C or DHT-3C co-localized with AR and translocated to the nucleus.
AR positive CaP cell lines were treated for 16 hours with androgen-free, serum-free complete media (SFM) alone, or SFM that contained 20 nM or 50 nM fluorescent-androgens or C alone. The time points were chosen to measure differences in uptake of the fluorescent-androgens and nuclear or cytosolic localization of the fluorescent-androgens and/or AR-GFP.
Serum-free complete media (SFM)^2 was used to androgen deprive cells.

CaP cell lines = assay: MTT CaP cell growth during androgen deprivation, cell line panel; format: cell-based; conditions: SFM with DHT-3C, six days
From the text: MTT analysis was used to assess if treatment with DHT-3C facilitated CaP cell growth during androgen deprivation. […] SFM with DHT-3C stimulated growth in 3 of 5 cell lines (FIG. 25).

AR-V2-GFP = target: T2, AR-V2-GFP (Homo sapiens, UniProt P10275); assay: ImageStream co-localization with AR-V2-GFP; format: cell-based; conditions: VCaP and PC-3 cells that stably expressed AR-V2-GFP; hydrochloride
T2 construct: stably expressed AR170 LBD only with splice variant V2 (AR-V2-GFP); expressed in transfected cells; host or cells: VCaP, PC-3
T2 sequence (P10275 1-388 isoform P10275-2): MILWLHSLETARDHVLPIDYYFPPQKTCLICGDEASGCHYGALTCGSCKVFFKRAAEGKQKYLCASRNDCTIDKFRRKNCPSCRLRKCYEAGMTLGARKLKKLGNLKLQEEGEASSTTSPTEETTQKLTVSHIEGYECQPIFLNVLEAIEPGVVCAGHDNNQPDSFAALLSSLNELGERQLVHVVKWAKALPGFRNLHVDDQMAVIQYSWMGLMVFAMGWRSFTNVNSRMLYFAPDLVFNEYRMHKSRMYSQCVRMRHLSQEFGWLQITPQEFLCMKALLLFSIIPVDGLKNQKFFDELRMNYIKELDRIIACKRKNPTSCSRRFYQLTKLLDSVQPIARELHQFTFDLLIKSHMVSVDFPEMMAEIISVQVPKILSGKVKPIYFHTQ
Procedure: (§3) ImageStream studies were repeated using VCaP and PC-3 cells that stably expressed AR-V2 (splice-variant that lacked the N-terminus) with C-terminal GFP (AR-V2-GFP). […] ImageStream data was confirmed using immunoprecipation (IP) studies performed with a DHT-targeted antibody.
(§4) Serum-free complete media (SFM)^2 was used to androgen deprive cells. PC-3 cells that contained empty plasmid were treated with SFM alone, SFM with C or SFM with DHT-3C.

[1] = test system: AR- or AR-GFP negative PC-3 cells; assay: ImageStream nuclear localization in AR-negative PC-3 cells; format: cell-based; conditions: PC-3 cells without AR or AR-GFP (empty plasmid); hydrochloride
Procedure: as §3, §4

KLK2 [2] = assay: Western blot of AR-regulated protein expression; format: cell-based; conditions: CaP cell lines
LNCaP cells = assay: MTT cell growth, LNCaP; format: cell-based; conditions: six days; data not shown
KLK2 [3] = assay: qRT-PCR of AR-regulated gene KLK2; format: cell-based; conditions: 24 hours; VCaP, LAPC-4, LNCaP, CWR-R1 and 22rv1 cells
LAPC-4 cells = assay: MTT cell growth, LAPC-4; format: cell-based; conditions: six days; data not shown
CWR-R1 cells = assay: MTT cell growth, CWR-R1; format: cell-based, human; conditions: six days; DHT-17C at 20 nM, DHT-3C at 20 nM
Procedure: as §1, §2

| SMILES | VCaP cell growth impairment versus DHT-17C (VCaP cells; enzalutamide at 1, 12, 20, 50 or 100 μM) | extension of survival (CRPC) [months] | VCaP cell growth (MTT) (VCaP cells; six days, DHT-17C at 20 nM, DHT-3C at 20 nM) | nuclear co-localization with AR-GFP (AR-GFP; PC-3-AR-GFP cells, SFM) | nuclear co-localization with AR-GFP (AR-GFP; VCaP that stably expressed AR-GFP) | nuclear co-localization with AR-GFP and DRAQ5 (AR-GFP; VCaP-AR-GFP and PC-3-AR-GFP cells) | cell lines with stimulated growth (CaP cell lines) | co-localization with AR-V2-GFP (AR-V2-GFP) | nuclear localization in AR-negative cells [1] | AR-regulated protein expression levels (KLK2 [2]) | LNCaP cell growth (MTT) (LNCaP cells) | KLK2 transcript induction (KLK2 [3]) | LAPC-4 cell growth (MTT) (LAPC-4 cells) | CWR-R1 cell growth (MTT) (CWR-R1 cells) |
| --- | --- | --- | --- | --- | --- | --- | --- | --- | --- | --- | --- | --- | --- | --- |
| CNC(=O)c1ccc(N2C(=S)N(c3ccc(C#N)c(C(F)(F)F)c3)C(=O)C2(C)C)cc1F [enzalutamide, reference compound] | impaired VCaP cell growth to similar extents | 4.8 |  |  |  |  |  |  |  |  |  |  |  |  |
| C[C@]12CC[C@]3(C[C@@H]1CC[C@@H]1[C@@H]2CC[C@]2(C)[C@@H](O)CC[C@@H]12)NCCc1c3c(=O)oc2c3c4c(cc12)CCCN4CCC3 [DHT-3C, (3R,5S,10S,13S,17S)-17-hydroxy-10,13-dimethyl-1,2,2′,3′,4,5,6,7,8,8′,9,9′,10,11,12,12′,13,13′,14,15,16,17-docosahydro-7′H,11′H-spiro[cyclopenta[a]phenanthrene-3,4′-pyrido[3,2,1-ij]pyrido[4′,3′:4,5]pyrano[2,3-j]quinolin]-5′(1′H)-one hydrochloride] |  |  | promoted VCaP, LAPC-4, and LNCaP cell growth | showed nuclear co-localization between DHT-3C and AR-GFP | demonstrated co-localization between DHT-3C and AR-GFP | co-localized with AR-GFP | 3 of 5 | co-localized with DRAQ5 and AR-V2-GFP; also recorded: co-localized with the AR LBD | did not produce nuclear fluorescence | produced similar AR-regulated protein expression levels | promoted VCaP, LAPC-4, and LNCaP cell growth | produced similar inductions of expression | promoted VCaP, LAPC-4, and LNCaP cell growth | promoted |

— patent US12337004B2, “Coumarin-modified androgens for the treatment of prostate cancer” (Health Research, Inc., priority 2019, dated 2025)
